Test results: ChEMBL document CHEMBL5291721, “A preclinical secondary pharmacology resource illuminates target-adverse drug reaction associations of marketed drugs” (Nat Commun, 2023)

Tests used:
[1] = molecular target: T1, Neuropeptide Y receptor type 1 (Homo sapiens, UniProt P25929)
T1 sequence (P25929 whole entry): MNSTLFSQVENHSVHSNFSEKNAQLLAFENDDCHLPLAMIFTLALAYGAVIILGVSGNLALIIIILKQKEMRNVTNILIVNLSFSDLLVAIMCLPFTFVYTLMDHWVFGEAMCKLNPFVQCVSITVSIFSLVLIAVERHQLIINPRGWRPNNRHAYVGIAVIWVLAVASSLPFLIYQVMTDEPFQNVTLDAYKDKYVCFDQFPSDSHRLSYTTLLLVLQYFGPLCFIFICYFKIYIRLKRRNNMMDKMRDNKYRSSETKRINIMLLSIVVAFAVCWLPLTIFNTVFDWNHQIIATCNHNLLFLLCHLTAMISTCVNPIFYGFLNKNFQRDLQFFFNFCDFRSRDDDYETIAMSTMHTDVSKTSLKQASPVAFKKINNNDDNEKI

Melanocortin receptor 3 = Melanocortin receptor 3 (Homo sapiens, UniProt P41968)
Adenosine receptor A2a = Adenosine receptor A2a (Homo sapiens, UniProt P29274)
[2] = molecular target: T2, 5-hydroxytryptamine receptor 1A (Homo sapiens, UniProt P08908); assay type: functional, cell-based
T2 sequence (P08908 whole entry): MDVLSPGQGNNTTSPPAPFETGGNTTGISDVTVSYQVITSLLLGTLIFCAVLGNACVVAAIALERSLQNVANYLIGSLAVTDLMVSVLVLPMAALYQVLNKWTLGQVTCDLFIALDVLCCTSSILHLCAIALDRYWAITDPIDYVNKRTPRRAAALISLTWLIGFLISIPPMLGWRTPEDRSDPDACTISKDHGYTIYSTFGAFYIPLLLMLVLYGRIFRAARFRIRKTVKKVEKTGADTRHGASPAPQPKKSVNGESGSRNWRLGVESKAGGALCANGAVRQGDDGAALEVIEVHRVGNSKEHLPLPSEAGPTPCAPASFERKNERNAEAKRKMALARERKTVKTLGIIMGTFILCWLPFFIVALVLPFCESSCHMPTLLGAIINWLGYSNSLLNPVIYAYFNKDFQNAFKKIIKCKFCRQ

[3] = molecular target: T3, Amine oxidase [flavin-containing] A (Homo sapiens, UniProt P21397); assay type: functional
T3 sequence (P21397 whole entry): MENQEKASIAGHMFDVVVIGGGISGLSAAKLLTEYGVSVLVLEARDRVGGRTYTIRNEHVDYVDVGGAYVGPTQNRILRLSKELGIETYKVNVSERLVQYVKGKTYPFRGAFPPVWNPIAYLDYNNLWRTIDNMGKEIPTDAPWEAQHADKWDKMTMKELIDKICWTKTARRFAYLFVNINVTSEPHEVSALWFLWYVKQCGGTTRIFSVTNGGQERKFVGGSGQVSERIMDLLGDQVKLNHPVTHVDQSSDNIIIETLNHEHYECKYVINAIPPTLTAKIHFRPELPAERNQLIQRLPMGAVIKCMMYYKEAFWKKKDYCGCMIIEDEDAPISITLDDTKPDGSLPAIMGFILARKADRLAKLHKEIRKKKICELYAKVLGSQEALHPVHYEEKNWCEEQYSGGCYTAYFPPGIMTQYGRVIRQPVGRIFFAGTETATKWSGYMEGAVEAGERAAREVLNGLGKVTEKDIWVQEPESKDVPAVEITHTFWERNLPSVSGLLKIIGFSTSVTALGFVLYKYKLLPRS

Cannabinoid receptor 1 = Cannabinoid receptor 1 (Homo sapiens, UniProt P21554); assay type: functional, cell-based
D(3) dopamine receptor = D(3) dopamine receptor (Homo sapiens, UniProt P35462)
[4] = molecular target: Neuronal acetylcholine receptor subunit alpha-4 (Homo sapiens, UniProt P43681)
[5] = molecular target: T4, Muscarinic acetylcholine receptor M2 (Homo sapiens, UniProt P08172); assay type: functional, cell-based
T4 sequence (P08172 whole entry): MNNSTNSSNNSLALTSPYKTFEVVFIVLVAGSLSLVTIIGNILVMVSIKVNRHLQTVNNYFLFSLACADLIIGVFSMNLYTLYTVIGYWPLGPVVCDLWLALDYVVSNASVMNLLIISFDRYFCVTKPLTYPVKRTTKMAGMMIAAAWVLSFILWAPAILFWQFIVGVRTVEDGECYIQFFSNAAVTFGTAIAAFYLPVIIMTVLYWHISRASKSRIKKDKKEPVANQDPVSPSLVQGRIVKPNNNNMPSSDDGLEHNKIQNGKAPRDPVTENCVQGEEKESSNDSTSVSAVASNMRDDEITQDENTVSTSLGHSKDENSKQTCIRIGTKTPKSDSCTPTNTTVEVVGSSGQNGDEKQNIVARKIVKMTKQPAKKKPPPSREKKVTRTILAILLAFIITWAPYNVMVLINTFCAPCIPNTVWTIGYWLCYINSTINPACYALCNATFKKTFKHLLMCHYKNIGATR

[6] = molecular target: T5, Alpha-2C adrenergic receptor (Homo sapiens, UniProt P18825); assay type: functional
T5 sequence (P18825 whole entry): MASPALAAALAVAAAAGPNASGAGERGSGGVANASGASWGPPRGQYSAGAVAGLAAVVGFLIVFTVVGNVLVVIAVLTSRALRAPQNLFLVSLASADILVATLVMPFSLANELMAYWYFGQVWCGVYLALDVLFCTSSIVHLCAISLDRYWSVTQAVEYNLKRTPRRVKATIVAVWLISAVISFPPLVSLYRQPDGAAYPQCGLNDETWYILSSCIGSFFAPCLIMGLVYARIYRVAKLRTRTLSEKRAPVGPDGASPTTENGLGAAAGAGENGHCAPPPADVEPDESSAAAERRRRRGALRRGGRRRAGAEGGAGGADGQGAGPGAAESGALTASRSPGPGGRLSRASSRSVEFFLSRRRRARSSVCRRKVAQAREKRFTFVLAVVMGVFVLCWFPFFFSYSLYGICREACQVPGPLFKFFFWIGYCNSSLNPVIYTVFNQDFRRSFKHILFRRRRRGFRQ

[7] = molecular target: Delta-type opioid receptor (Homo sapiens, UniProt P41143)
Histamine H2 receptor = Histamine H2 receptor (Homo sapiens, UniProt P25021); assay type: functional, cell-based
[8] = molecular target: Gamma-aminobutyric acid receptor subunit alpha-1 (Rattus norvegicus, UniProt P62813)
Also: assay procedure not described here.

Sequence of Delta-type opioid receptor (P41143 whole entry): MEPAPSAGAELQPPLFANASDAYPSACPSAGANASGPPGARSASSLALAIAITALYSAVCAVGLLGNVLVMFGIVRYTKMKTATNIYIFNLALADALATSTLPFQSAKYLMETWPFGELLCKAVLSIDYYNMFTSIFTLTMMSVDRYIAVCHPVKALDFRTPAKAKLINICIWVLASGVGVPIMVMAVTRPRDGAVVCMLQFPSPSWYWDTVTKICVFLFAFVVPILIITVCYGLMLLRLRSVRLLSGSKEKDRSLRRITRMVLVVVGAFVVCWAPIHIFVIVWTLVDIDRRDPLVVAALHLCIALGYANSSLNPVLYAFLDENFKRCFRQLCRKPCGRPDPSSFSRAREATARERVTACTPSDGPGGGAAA
Sequence of D(3) dopamine receptor (P35462 whole entry): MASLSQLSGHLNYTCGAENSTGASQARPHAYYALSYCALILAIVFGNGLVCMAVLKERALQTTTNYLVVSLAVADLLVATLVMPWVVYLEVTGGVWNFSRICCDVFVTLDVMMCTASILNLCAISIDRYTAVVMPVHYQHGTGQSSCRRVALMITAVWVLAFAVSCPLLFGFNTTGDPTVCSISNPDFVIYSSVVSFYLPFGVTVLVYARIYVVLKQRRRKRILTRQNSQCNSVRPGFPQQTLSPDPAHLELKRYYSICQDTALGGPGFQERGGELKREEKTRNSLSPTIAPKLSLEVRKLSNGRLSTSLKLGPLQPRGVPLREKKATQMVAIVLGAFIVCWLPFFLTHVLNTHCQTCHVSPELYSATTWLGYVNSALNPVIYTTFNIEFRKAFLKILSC
Sequence of Adenosine receptor A2a (P29274 whole entry): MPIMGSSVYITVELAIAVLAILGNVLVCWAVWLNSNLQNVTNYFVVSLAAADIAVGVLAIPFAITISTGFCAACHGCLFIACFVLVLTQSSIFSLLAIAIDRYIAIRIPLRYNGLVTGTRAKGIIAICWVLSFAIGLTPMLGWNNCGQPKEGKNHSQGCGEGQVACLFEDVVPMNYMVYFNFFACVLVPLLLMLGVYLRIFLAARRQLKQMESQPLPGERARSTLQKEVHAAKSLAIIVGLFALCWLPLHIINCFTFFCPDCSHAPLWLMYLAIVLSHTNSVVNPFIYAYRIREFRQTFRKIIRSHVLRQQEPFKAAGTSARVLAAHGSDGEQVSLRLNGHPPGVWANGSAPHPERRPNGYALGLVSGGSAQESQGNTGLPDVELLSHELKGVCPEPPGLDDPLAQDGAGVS
Sequence of Histamine H2 receptor (P25021 whole entry): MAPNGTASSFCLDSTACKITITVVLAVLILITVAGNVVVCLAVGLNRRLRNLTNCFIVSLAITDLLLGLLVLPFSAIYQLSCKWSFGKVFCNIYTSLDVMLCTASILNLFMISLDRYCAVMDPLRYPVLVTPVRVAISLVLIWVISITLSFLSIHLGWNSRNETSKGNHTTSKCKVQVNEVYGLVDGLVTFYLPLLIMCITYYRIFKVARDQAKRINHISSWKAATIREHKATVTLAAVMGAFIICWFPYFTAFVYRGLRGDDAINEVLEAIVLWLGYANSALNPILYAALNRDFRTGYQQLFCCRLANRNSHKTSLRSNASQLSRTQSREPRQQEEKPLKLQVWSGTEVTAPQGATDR
Sequence of Neuronal acetylcholine receptor subunit alpha-4 (P43681 whole entry): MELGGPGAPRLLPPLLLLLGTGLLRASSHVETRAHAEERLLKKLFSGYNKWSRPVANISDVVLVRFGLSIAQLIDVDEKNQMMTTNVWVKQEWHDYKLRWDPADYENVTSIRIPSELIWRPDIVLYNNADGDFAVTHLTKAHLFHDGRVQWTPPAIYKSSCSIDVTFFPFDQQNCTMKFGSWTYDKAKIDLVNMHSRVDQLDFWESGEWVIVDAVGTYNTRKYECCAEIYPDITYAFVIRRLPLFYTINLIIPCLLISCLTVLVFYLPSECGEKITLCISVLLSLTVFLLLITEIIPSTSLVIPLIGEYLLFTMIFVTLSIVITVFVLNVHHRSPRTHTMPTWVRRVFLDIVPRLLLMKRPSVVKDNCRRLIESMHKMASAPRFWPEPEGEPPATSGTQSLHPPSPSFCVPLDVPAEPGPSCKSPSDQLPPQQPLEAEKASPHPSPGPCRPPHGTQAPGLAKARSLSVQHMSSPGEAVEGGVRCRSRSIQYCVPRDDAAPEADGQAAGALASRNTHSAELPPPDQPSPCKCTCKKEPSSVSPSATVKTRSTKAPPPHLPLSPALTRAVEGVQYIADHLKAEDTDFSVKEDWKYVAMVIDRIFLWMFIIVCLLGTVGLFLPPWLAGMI
Sequence of Cannabinoid receptor 1 (P21554 whole entry): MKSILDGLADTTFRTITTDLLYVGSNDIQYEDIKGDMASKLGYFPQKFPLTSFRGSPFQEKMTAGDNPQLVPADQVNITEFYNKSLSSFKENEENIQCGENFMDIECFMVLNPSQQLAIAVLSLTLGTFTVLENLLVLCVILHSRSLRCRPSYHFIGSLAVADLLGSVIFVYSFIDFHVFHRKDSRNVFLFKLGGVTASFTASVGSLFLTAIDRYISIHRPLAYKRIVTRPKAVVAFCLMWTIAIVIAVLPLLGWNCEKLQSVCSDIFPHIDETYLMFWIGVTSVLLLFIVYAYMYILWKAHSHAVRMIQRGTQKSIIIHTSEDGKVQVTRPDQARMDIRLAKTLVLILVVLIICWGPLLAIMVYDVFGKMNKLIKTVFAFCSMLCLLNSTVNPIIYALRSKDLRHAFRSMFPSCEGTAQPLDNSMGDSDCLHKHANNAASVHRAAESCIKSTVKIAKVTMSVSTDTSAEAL
Sequence of Gamma-aminobutyric acid receptor subunit alpha-1 (P62813 whole entry): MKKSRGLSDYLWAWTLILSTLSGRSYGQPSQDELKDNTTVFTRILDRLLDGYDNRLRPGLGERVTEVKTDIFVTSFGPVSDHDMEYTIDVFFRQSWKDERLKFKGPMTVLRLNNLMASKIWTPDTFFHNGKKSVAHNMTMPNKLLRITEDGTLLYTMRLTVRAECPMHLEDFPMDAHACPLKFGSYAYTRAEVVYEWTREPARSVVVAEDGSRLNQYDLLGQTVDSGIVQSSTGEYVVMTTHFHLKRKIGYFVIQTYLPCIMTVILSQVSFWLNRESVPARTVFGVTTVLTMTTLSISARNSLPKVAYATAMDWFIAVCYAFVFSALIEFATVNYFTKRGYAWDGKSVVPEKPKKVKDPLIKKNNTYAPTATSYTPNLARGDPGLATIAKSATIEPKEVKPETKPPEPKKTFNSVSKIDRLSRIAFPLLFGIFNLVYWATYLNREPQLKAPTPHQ
Sequence of Melanocortin receptor 3 (P41968 whole entry): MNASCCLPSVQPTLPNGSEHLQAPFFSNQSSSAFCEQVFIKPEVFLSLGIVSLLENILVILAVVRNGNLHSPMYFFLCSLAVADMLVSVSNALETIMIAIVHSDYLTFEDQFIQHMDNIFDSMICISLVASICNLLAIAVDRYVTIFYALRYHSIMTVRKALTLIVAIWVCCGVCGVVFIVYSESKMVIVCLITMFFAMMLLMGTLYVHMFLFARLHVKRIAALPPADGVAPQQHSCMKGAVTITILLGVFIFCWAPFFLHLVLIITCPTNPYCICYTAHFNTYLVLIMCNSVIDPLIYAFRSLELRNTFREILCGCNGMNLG

Row | AC50 [1] | AC50 (Melanocortin receptor 3) | AC50 (Adenosine receptor A2a) | AC50 [2] | AC50 [3] | AC50 (Cannabinoid receptor 1) | AC50 (D(3) dopamine receptor) | AC50 [4] | AC50 [5] | AC50 [6] | AC50 [7] | AC50 (Histamine H2 receptor) | AC50 [8] | Compound
1 | > 30 µM | > 30 µM | > 30 µM | > 30 µM | > 30 µM | > 30 µM | > 30 µM | > 30 µM | > 30 µM | > 30 µM | > 30 µM | > 30 µM | > 30 µM | Nc1nc(Cl)nc2c1ncn2[C@H]1C[C@H](O)[C@@H](CO)O1 [CLADRIBINE]
2 | > 30 µM | > 30 µM | > 30 µM | > 30 µM | > 30 µM | > 30 µM | > 30 µM | > 30 µM | > 30 µM | > 30 µM | > 30 µM | > 30 µM | > 30 µM | C#C[C@]1(O)CC[C@H]2[C@@H]3[C@H](C)CC4=C(CCC(=O)C4)[C@H]3CC[C@@]21C [TIBOLONE]

Row | Compound | AC50 [1] | AC50 (Melanocortin receptor 3) | AC50 (Adenosine receptor A2a) | AC50 [2] | AC50 [3] | AC50 (Cannabinoid receptor 1) | AC50 (D(3) dopamine receptor) | AC50 [4] | AC50 [5] | AC50 [6] | AC50 [7] | AC50 (Histamine H2 receptor) | AC50 [8]
3 | C[C@@H]1O[C@@H](O[C@@H]2C=C3CC[C@@H]4[C@H](CC[C@]5(C)[C@@H](c6ccc(=O)oc6)CC[C@]45O)[C@@]3(C)CC2)[C@H](O)[C@H](O)[C@H]1O [PROSCILLARIDIN] | > 30 µM | > 30 µM | > 30 µM | > 30 µM | > 30 µM | > 30 µM | > 30 µM | > 30 µM | > 30 µM | > 30 µM | > 30 µM | > 30 µM | > 30 µM
